Laboratory results reported in US9682941B2, “Substituted biphenyl analogues as dual inhibitors of aromatase and sulfatase” (ESTRYX PHARMA LIMITED, priority 2013, dated 2017).

Experiments:
CYP1A2 = biological target: T1, CYP1A2 (Homo sapiens, UniProt P05177); test: Cytochrome P450 inhibition, human recombinant CYP1A2; assay type: in vitro ADME; conditions: recombinant human CYP, 15 minutes, 37° C.
T1 sequence (P05177 1-516): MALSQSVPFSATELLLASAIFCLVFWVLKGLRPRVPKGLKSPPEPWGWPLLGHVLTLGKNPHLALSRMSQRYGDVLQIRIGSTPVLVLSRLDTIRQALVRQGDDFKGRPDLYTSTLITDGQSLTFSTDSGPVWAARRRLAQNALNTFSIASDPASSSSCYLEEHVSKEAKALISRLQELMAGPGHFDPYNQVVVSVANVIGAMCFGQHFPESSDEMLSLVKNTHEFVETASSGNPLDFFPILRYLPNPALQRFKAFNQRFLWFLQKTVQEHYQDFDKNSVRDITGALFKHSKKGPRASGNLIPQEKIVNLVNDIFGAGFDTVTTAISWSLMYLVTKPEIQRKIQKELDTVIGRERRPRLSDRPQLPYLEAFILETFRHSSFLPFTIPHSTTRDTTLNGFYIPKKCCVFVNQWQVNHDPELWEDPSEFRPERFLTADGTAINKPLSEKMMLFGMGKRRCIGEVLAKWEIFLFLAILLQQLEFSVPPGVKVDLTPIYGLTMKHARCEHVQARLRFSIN
Experimental: (§1) Inhibitory activity of the compounds towards CYP1A2, 2C9, 2C19, 2D6, and 3A4 was evaluated using human recombinant CYPs. Test compounds and reference inhibitors were initially prepared from their stock solutions in a mixture solvent of DMSO/ACN (10/90) at a concentration of 200-fold of the final. A 3-fold serial dilution (1/3, 1/9, 1/27 etc.) was made in the DMSO/ACN mixture solvent to generate 7 consecutive concentrations. The serially diluted solutions of test compounds and reference inhibitors (positive controls) were further diluted directly in recombinant human CYP enzymes in assay buffer (0.1 M potassium phosphate buffer, pH7.4) to reach the concentration of 2-fold of the final (2×). Aliquots of 30 μL of 2× compound/enzyme solutions were loaded to a 96-well assay plates and preincubated at 37° C. for 10 minutes. An aliquot of 15 μL of prewarmed 4× substrate solutions made in the assay buffer was added into each of the wells containing the 2× compound/enzyme mixtures. Finally, the reaction was initiated by adding an aliquot of 15 μL of 4×NADPH made in the assay buffer and the assay plates were further incubated at 37° C. for a time period designated for each isoform (5 minutes for 3A4, 20 minutes for 2C9, 10 minutes for 2D6 and 2C19, and 15 minutes for 1A2). The reactions were stopped by adding 120 μL ACN containing the stable isotopes of the metabolites for corresponding CYP isoforms, followed by vortexing for 5 minutes and centrifugation at 4000 rpm for 15 minutes. The resulting supernatants were transferred into new 96-well plates for LC-MS/MS analysis. Experiments are performed in duplicate. The inhibitory concentration of 50% of the enzymatic activity is calculated.

aromatase = biological target: T2, aromatase (Homo sapiens, UniProt P11511); test: Aromatase inhibition assay in JEG-3 cells ([1β-3H] androstenedione, tritiated water release); assay type: cell-based; conditions: 1.25 hour incubation, duplicate
T2 construct: JEG-3 which constitutively expresses high amount of aromatase and steroid sulfatase; endogenous in cells; host or cells: JEG-3
T2 sequence (P11511 1-503): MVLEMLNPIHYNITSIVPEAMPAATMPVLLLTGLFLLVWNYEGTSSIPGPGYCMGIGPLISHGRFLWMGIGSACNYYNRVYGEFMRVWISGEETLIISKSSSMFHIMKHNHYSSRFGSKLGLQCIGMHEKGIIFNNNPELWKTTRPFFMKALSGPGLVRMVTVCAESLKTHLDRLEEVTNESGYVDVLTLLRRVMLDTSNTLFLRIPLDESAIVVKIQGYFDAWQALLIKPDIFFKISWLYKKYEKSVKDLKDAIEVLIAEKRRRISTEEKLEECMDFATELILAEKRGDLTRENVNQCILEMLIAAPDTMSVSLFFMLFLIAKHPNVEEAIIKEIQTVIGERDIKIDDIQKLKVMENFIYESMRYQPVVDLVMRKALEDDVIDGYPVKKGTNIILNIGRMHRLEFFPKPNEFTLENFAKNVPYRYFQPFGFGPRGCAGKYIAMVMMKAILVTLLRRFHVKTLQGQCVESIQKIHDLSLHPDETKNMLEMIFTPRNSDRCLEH
Experimental: (§2) Aromatase and steroid sulfatase enzymes inhibitions were evaluated in the human chorionic carcinoma cell line JEG-3 which constitutively expresses high amount of aromatase and steroid sulfatase.
For aromatase inhibition assay, JEG-3 cells were seeded into 96-well plates at 35,000 cells/well and maintained in MEM containing supplements. When reaching 80% confluent, the cells were washed once with serum-free MEM, incubated with [1β-^3H] androstenedione (A4, 0.2 μCi/ml) for 1.25 hour in the presence of the test substances added in a concentration series. The product, tritiated water (^3H2O), was separated using 2.5% (w/v) dextran-coated charcoal at 4-8° C. for 2 hours. The supernatant radioactivity was measured by a MicroBeta scintillation counter.
(§3) Experiments are performed in duplicate. The inhibitory concentration of 50% of the enzymatic activity is calculated.

CYP3A4 = CYP3A4 (Homo sapiens, UniProt P08684); test: Cytochrome P450 inhibition, human recombinant CYP3A4; assay type: in vitro ADME; conditions: recombinant human CYP, 5 minutes, 37° C.
Experimental: as §1

CYP2C9 = CYP2C9 (Homo sapiens, UniProt P11712); test: Cytochrome P450 inhibition, human recombinant CYP2C9; assay type: in vitro ADME; conditions: recombinant human CYP, 20 minutes, 37° C.
Experimental: as §1

steroid sulfatase = biological target: T3, steroid sulfatase (Homo sapiens, UniProt P08842); test: Steroid sulfatase (STS) inhibition assay in JEG-3 cells ([6,7-3H] estrone sulfate); assay type: cell-based; conditions: 1 hour at 37° C., duplicate
T3 construct: JEG-3 which constitutively expresses high amount of aromatase and steroid sulfatase; endogenous in cells; host or cells: JEG-3
T3 sequence (P08842 22-583): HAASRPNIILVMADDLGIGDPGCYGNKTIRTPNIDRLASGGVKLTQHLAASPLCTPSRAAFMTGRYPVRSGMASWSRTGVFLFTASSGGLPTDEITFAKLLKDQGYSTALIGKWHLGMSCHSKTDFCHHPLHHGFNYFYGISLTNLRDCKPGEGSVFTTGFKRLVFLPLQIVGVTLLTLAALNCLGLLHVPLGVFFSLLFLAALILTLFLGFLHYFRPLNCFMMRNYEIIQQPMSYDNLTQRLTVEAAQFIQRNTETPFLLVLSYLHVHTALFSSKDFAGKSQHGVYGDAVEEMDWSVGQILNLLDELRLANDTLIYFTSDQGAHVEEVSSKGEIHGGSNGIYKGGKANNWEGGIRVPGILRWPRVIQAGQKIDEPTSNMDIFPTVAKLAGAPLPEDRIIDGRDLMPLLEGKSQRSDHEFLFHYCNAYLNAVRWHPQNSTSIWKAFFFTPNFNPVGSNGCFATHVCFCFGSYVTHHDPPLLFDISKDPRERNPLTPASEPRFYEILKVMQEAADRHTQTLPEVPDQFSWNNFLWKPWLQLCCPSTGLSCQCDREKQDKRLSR
Experimental: as §2
For STS assay, JEG-3 cells were seeded into 24-well culture plates at 150,000 cells/ml/well and maintained in MEM containing supplements overnight. When reaching 80% confluent, the cells were washed once with serum-free MEM, loaded with 1 ml of substrate mix containing [6,7-3H] Estrone sulfate (E1S, 0.6 μCi/ml) and [4-14C] Estrone (E1, 4 nCi/ml) in the presence of compounds in a concentration series, and incubated for 1 hour at 37° C. The product [3H]E1 was separated from E1S by toluene partition using [4-14C]E1 to monitor extraction procedural losses, and the toluene fraction radioactivity was measured by a MicroBeta scintillation counter.
as §3

CYP2D6 = CYP2D6 (Homo sapiens, UniProt P10635); test: Cytochrome P450 inhibition, human recombinant CYP2D6; assay type: in vitro ADME; conditions: recombinant human CYP, 10 minutes, 37° C.
Experimental: as §1

CYP2C19 = CYP2C19 (Homo sapiens, UniProt P33261); test: Cytochrome P450 inhibition, human recombinant CYP2C19; assay type: in vitro ADME; conditions: recombinant human CYP, 10 minutes, 37° C.
Experimental: as §1

CYP2D6, sequence (P10635 whole entry): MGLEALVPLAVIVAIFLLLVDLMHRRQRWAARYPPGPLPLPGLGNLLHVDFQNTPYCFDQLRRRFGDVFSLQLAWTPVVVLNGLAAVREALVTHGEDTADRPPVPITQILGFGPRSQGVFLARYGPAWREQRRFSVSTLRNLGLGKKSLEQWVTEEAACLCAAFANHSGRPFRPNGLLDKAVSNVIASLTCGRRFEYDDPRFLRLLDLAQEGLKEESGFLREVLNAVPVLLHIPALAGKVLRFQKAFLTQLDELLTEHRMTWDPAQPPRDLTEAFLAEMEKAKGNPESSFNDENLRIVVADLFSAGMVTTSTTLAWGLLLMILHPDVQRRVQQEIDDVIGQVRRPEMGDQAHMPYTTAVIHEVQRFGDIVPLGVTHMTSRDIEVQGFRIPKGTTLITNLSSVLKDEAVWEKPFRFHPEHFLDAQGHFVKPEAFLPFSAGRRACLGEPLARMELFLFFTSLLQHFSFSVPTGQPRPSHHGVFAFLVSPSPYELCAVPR
CYP3A4, sequence (P08684 whole entry): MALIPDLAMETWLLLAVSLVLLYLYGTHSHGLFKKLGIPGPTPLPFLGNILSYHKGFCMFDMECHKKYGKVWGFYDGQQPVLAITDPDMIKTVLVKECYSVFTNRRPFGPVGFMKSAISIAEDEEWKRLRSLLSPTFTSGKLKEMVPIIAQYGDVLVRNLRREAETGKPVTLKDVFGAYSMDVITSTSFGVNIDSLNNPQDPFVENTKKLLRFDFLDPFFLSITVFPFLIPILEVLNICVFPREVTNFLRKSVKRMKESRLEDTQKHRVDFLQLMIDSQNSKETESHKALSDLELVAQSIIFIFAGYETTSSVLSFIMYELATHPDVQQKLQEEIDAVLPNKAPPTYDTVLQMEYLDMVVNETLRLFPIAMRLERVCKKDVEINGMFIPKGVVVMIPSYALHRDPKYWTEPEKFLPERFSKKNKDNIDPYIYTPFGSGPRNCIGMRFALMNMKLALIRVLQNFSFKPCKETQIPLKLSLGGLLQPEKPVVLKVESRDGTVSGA
CYP2C9, sequence (P11712 whole entry): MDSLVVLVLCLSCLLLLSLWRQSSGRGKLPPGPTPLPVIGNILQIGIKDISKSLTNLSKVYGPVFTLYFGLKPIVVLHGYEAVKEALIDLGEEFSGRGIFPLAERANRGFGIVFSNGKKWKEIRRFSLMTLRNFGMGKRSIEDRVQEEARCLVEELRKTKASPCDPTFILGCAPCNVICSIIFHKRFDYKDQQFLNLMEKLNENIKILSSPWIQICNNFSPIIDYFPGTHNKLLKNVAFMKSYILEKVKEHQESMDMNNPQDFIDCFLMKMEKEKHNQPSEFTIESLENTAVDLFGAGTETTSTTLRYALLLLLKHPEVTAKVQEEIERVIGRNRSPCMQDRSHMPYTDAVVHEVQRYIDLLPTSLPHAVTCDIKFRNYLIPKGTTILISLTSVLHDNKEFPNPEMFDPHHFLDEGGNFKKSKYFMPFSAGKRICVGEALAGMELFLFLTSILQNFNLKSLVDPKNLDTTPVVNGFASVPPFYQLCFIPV
CYP2C19, sequence (P33261 whole entry): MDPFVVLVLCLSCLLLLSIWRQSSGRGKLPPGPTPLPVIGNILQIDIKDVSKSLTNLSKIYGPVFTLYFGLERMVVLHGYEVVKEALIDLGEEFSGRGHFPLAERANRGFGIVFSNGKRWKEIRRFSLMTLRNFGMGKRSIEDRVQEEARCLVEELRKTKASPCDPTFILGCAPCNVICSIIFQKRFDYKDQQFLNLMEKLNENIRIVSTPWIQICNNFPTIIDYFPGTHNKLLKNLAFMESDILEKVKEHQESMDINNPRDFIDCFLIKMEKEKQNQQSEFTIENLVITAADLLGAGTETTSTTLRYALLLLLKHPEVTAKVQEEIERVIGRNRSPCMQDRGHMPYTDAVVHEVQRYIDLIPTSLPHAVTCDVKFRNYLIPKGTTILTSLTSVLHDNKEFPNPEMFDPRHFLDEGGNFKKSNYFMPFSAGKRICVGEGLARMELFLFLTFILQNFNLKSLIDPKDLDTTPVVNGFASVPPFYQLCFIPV

SMILES	IC50 (CYP1A2)	IC50 (aromatase)	IC50 (CYP3A4)	IC50 (CYP2C9)	IC50 (steroid sulfatase)	IC50 (CYP2D6)	IC50 (CYP2C19)
N#Cc1cnc(Cn2cnc3ccccc32)nc1-c1ccc(OS(N)(=O)=O)cc1 [Example 9, 4-(2-((1H-Benzo[d]imidazol-1-yl)methyl)-5-cyanopyrimidin-4-yl)phenyl sulfamate]	> 5 µM	0.0035 µM	3.68 µM	> 5 µM	0.0018 µM	> 5 µM	> 5 µM
N#Cc1cnc(Cn2cnc3ccccc32)cc1-c1ccc(OS(N)(=O)=O)cc1 [Example 17, 4-(2-((1H-Benzo[d]imidazol-1-yl)methyl)-5-cyanopyridin-4-yl)phenyl sulfamate]	> 5 µM	0.0022 µM	> 5 µM	> 5 µM	0.0039 µM	> 5 µM	> 5 µM
N#Cc1ccc(Nn2cnc3ccccc32)nc1-c1ccc(OS(N)(=O)=O)cc1 [Example 22, 4-(6-(1H-Benzo[d]imidazol-1-ylamino)-3-cyanopyridin-2-yl)phenyl sulfamate]	> 5 µM	0.0037 µM	> 5 µM	> 5 µM	0.006 µM	> 5 µM	> 5 µM
N#Cc1ccc(Cn2cnc3cc(F)c(F)cc32)cc1-c1ccc(OS(N)(=O)=O)cc1 [Example 24, 2′-Cyano-5′-((5,6-difluoro-1H-benzo[d]imidazol-1-yl)methyl)biphenyl-4-yl sulfamate]	> 5 µM	0.0009 µM	3.26 µM	> 5 µM	0.002 µM	> 5 µM	> 5 µM
N#Cc1cnc(Nn2cnc3ccccc32)cc1-c1ccc(OS(N)(=O)=O)cc1 [Example 26, 4-(2-(1H-Benzo[d]imidazol-1-ylamino)-5-cyanopyridin-4-yl)phenyl sulfamate]	> 5 µM	0.0027 µM	2.54 µM	> 5 µM	0.0118 µM	> 5 µM	> 5 µM
N#Cc1ncc(Cn2cnc3ccccc32)cc1-c1ccc(OS(N)(=O)=O)cc1 [Example 31, 4-(5-((1H-Benzo[d]imidazol-1-yl)methyl)-2-cyanopyridin-3-yl)phenyl sulfamate]	> 5 µM	0.0046 µM	> 5 µM	> 5 µM	0.0105 µM	> 5 µM	> 5 µM
N#Cc1cnc(Cn2cnc3cccnc32)cc1-c1ccc(OS(N)(=O)=O)cc1 [Example 36, 4-(2-((3H-Imidazo[4,5-b]pyridin-3-yl)methyl)-5-cyanopyridin-4-yl)phenyl sulfamate]	> 5 µM	0.002 µM	> 5 µM	> 5 µM	0.0105 µM	> 5 µM	> 5 µM
